Experimental data from patent publication EP0231622B1, “Inhibition of the 5-lipoxygenase pathway” (priority 1985, dated 1987).
Marks after values point to notes of the source that are not given here.

How the values were obtained:
[1] = system: Arachidonic Acid-Induced Inflammation of the Mouse Ear; assay: Arachidonic acid-induced mouse ear inflammation; assay type: in vivo, Balb/c mice; settings: Table 7A, NS = not significant
Excerpt: In the following Examples where mice were used, they were male Balb/c mice (20-28 g), and where rats were used, they were male Lewis rats (180-210 g). All mice and rats were obtained from Charles River Breeding Laboratories, Kingston, N.Y. Within a single experiment, mice and rats were sex and age matched.
The compounds of Formula (IA) were used either as the free base or in the appropriate salt form. Levamisole was used as the hydrochloride salt. The compounds were homogenized in 0.5% tragacanth. Compounds were administered by gavage at the indicated dose in a final volume of 10 ml/kg. Nordihydroguaiaretic acid (NDGA) was solubilized in dimethylacetamide and diluted with olive oil for subcutaneous administration.
Arachidonic acid in acetone (2 mg/20 ul) was applied to the inner surface of the left ear. The thickness of both ears was then measured with a dial micrometer one hour after treatment, and the data were expressed as the change in thickness (10⁻³ cm) between treated and untreated ears.
Test compounds were given orally in 0.5% tragacanth at the times indicated in the text prior to the topical application of arachidonic acid.
Parenteral administration of compound was accomplished by subcutaneous injection of solution as indicated.

[2] = molecular target: T1, 5-LO (Rattus norvegicus, UniProt P12527); assay: di-HETE production by RBL-1 high speed supernatant; assay type: biochemical; settings: Table 9A; di-HETE production by RBL-1 high speed supernatant; read-out: 5-LO IC50
T1 construct: The activities of these enzymes in extracts of RBL-1 cells were assayed; host or cells: RBL-1 cells, disrupted by nitrogen cavitation; 10,000 x g or 100,000 x g supernatant
T1 sequence (P12527 1-673): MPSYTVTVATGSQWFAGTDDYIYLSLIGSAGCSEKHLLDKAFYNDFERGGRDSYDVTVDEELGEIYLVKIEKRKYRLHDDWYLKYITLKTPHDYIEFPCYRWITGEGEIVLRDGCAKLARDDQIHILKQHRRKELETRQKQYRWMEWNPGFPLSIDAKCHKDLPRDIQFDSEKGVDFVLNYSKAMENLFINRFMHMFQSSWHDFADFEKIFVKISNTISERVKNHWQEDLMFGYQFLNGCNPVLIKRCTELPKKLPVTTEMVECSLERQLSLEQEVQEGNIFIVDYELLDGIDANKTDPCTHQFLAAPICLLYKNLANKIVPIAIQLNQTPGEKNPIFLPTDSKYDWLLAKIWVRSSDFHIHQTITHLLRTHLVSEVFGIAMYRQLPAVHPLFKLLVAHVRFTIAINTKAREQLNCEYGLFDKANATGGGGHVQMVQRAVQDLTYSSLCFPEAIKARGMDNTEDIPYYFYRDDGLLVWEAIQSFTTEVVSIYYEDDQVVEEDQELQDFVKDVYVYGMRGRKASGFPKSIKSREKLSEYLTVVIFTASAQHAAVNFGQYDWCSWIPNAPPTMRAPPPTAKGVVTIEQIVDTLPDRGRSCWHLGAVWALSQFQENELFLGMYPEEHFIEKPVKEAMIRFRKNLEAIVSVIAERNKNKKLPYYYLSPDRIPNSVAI
Protocol: (§1) For in vitro experiments, compounds were dissolved at appropriate concentrations in ethanol or DMSO (dimethylsulfoxide) (final concentration <1.0%) and then diluted to final concentrations using the buffers indicated in the text.
(§2) The activities of these enzymes in extracts of RBL-1 cells were assayed using the method of Jakschik and Lee, Nature, 287, 51-52 (1980). RBL-1 cells were obtained from the American Type Culture Collection (#CRL 1378) and were grown at 37°C (5% CO₂ in air) in spinner culture in MEM supplemented with 10% heat inactivated fetal calf serum. Harvested cells were washed with 50 mM sodium phosphate buffer, pH 7.0, containing 1 mM EDTA and 0.1% gelatin, resuspended in fresh buffer (5 x 10⁷ cells/ml) and disrupted by nitrogen cavitation using the Parr bomb at 750 psi for 10 min. The broken cell extract was then centrifuged at 10,000 x g for 20 minutes and the supernatant centrifuged at 100,000 x g for 60 minutes. Aliquots (0.25 mls) of the supernatant were preincubated with or without drugs for 10 min, after which 10 ul CaCl₂ (50 mM) was added and the reaction was initiated with 2.5 ul of 2.5 mM arachidonic acid-1-¹⁴C (final concentration was […]; specific activity 20,000 dpm/nmole). After incubation for 3 min at 37°C, the reaction was terminated by addition of 2 volumes (0.5 ml) ice cold acetone and the sample was allowed to deproteinize on ice for 10 min prior to centrifugation at 1,000 x g for 10 min. The deproteinized supernatant was adjusted to pH 3.5 with 2N formic acid and extracted with 2 volumes of ice cold ethyl acetate. The extracted samples were dried under argon, redissolved in ethyl acetate and applied to Whatman LK5D thin layer chromatography (TLC) plates which were developed using the A-9 solvent system [organic phase of ethyl acetate: 2,2,5-trimethylpentane:acetic acid: water (110:50:20:10)] described by Hamberg and Samuelsson, J. Biol. Chem., 241, 257-263 (1966). Arachidonic acid, 5-HETE, di-HETE and PGD₂ were quantified with a Berthold LB 2832 autoscanner.
(§3) The 5-lipoxygenase and LTA₄ synthetase activities were further studied under the following conditions. An additional centrifugation of the RBL-1 supernatant was run at 100,000 x g for 60 min, to remove the particulate cyclooxygenase activity. Sample incubation was done under conditions similar to those described above, i.e., 2 mM CaCl₂ and 25 uM arachidonic acid-1-¹⁴C, however, with an incubation time of 5 min at […]. Under these conditions, only the 5-lipoxygenase pathway metabolites were detectable. The 5-HETE and di-HETEs were formed at a linear rate, and […] amounts of the arachidonic acid-1-¹⁴C substrate were utilized.

[3] = molecular target: T2, 5-Lipoxygenase (Rattus norvegicus, UniProt P12527); assay: 5-HETE production by RBL-1 high speed supernatant; assay type: biochemical; settings: Table 8A; RBL-1 high speed supernatant
T2 construct: The activities of these enzymes in extracts of RBL-1 cells were assayed; host or cells: RBL-1 cells, disrupted by nitrogen cavitation; 10,000 x g or 100,000 x g supernatant
T2 sequence (P12527 1-673): T1 sequence (P12527 1-673)
Protocol: as §1, §2, §3

Structure (SMILES) | % Inhibition of Ear Swelling ([1]; 50 mg/kg s.c. or i.p.) | IC50 [2] | IC50 [3] | % Inhibition of Ear Swelling ([1]; 50 mg/kg oral dosing (p.o.))
CN(C)c1ccc(-c2c(-c3ccc(F)cc3)nc3n2CCS3)cc1 [Compound 10, 5-(4-N,N-Dimethylaminophenyl)-6-(4-fluorophenyl)-2,3-dihydroimidazo[2,1-b]thiazole] | 17* % | 1.5 µM | 5 µM | 
Fc1ccc(-c2nc3n(c2-c2ccncc2)CCC3)cc1 [Compound 39, 2-(4-fluorophenyl)-3-(4-pyridyl)-6,7-dihydro-[5H]-pyrrolo [1,2-a]imidazole] | 93% | 32 µM | 67 µM | 
COc1ccc(-c2nc3n(c2-c2ccncc2)CCC3)cc1 [Compound 40, 2-(4-methoxyphenyl)-3-(4-pyridyl)-6,7-dihydro-[5H]-pyrrolo [1,2-a]imidazole] |  | 10 µM | 16 µM | 83 (p.o.) %
COc1ccc(-c2nc3n(c2-c2ccncc2)CC[S+]3[O-])cc1 (centres unmarked) [Compound 41] | 45*** % |  |  | 
[O-][S+]1CCn2c1nc(-c1ccncc1)c2-c1ccc(F)cc1 (centres unmarked) [Compound 42] | 50*** % | 60 µM | 101 µM | 
CSc1ccc(-c2nc3n(c2-c2ccc(F)cc2)CCS3)cc1 [Compound 47] | 22*** % |  |  | 
